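The compound was tested at five concentrations on cells cultured in 96-well plates, with a 48-hour exposure period. GI50 = concentration required for 50% inhibition of growth. At the TGI there is no net growth.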
Columns and labels:
Assay in all cases: growth of human tumour cells (NCI), 48 h
SNB-19 CNS = system: SNB-19 CNS
SF-295 CNS = system: SF-295 CNS
RXF 393 renal = system: RXF 393 renal
HOP-92 NSCLC = system: HOP-92 NSCLC
NCI-H23 lung = system: NCI-H23 lung
SR leukemia = system: SR leukemia
HCC-2998 colon = system: HCC-2998 colon
MOLT-4 leukemia = system: MOLT-4 leukemia
SNB-75 CNS = system: SNB-75 CNS
SF-539 CNS = system: SF-539 CNS
HT29 colon = system: HT29 colon
SK-MEL-28 melanoma = system: SK-MEL-28 melanoma
UO-31 renal = system: UO-31 renal
SK-OV-3 ovarian = system: SK-OV-3 ovarian
MALME-3M melanoma = system: MALME-3M melanoma
HOP-62 NSCLC = system: HOP-62 NSCLC
HS 578T breast = system: HS 578T breast
OVCAR-4 ovarian = system: OVCAR-4 ovarian
OVCAR-3 ovarian = system: OVCAR-3 ovarian
HCT-116 colon = system: HCT-116 colon
SW-620 colon = system: SW-620 colon
UACC-257 melanoma = system: UACC-257 melanoma
BT-549 breast = system: BT-549 breast
OVCAR-8 ovarian = system: OVCAR-8 ovarian
LOX IMVI melanoma = system: LOX IMVI melanoma
MCF7 breast = system: MCF7 breast
U251 CNS = system: U251 CNS
IGROV1 ovarian = system: IGROV1 ovarian
HL-60(TB) leukemia = system: HL-60(TB) leukemia
ACHN renal = system: ACHN renal
SK-MEL-5 melanoma = system: SK-MEL-5 melanoma
A549 NSCLC = system: A549 NSCLC
NCI-H522 lung = system: NCI-H522 lung
UACC-62 melanoma = system: UACC-62 melanoma
NCI/ADR-RES ovarian = system: NCI/ADR-RES ovarian
RPMI-8226 leukemia = system: RPMI-8226 leukemia
A498 renal = system: A498 renal
COLO 205 colon = system: COLO 205 colon
NCI-H226 lung = system: NCI-H226 lung
786-0 renal = system: 786-0 renal
OVCAR-5 ovarian = system: OVCAR-5 ovarian
NCI-H460 lung = system: NCI-H460 lung
K-562 leukemia = system: K-562 leukemia
TK-10 renal = system: TK-10 renal
T-47D breast = system: T-47D breast
DU-145 prostate = system: DU-145 prostate
SN12C renal = system: SN12C renal
CCRF-CEM leukemia = system: CCRF-CEM leukemia
PC-3 prostate = system: PC-3 prostate
HCT-15 colon = system: HCT-15 colon
EKVX NSCLC = system: EKVX NSCLC
SK-MEL-2 melanoma = system: SK-MEL-2 melanoma
SF-268 CNS = system: SF-268 CNS
MDA-MB-435 = system: MDA-MB-435
M14 melanoma = system: M14 melanoma
CAKI-1 renal = system: CAKI-1 renal
KM12 colon = system: KM12 colon
MDA-MB-231 breast = system: MDA-MB-231 breast

SMILES: COc1cc(C(=O)/C=C/c2cccc(Nc3ccnc4cc(Cl)ccc34)c2)cc(OC)c1OC
- GI50 (SNB-19 CNS): 1180 nM
- TGI (SNB-19 CNS): 2450 nM
- GI50 (SF-295 CNS): 1420 nM
- TGI (SF-295 CNS): 3030 nM
- GI50 (RXF 393 renal): 1080 nM
- TGI (RXF 393 renal): 2480 nM
- GI50 (HOP-92 NSCLC): 1470 nM
- TGI (HOP-92 NSCLC): 5840 nM
- GI50 (NCI-H23 lung): 1670 nM
- TGI (NCI-H23 lung): 3680 nM
- GI50 (SR leukemia): 324 nM
- TGI (SR leukemia): 1420 nM
- GI50 (HCC-2998 colon): 1720 nM
- TGI (HCC-2998 colon): 3210 nM
- GI50 (MOLT-4 leukemia): 1790 nM
- TGI (MOLT-4 leukemia): 6460 nM
- GI50 (SNB-75 CNS): 1310 nM
- TGI (SNB-75 CNS): 3640 nM
- GI50 (SF-539 CNS): 1360 nM
- TGI (SF-539 CNS): 2680 nM
- GI50 (HT29 colon): 323 nM
- TGI (HT29 colon): 1300 nM
- GI50 (SK-MEL-28 melanoma): 1510 nM
- TGI (SK-MEL-28 melanoma): 3010 nM
- GI50 (UO-31 renal): 566 nM
- TGI (UO-31 renal): 1950 nM
- GI50 (SK-OV-3 ovarian): 1940 nM
- TGI (SK-OV-3 ovarian): 4510 nM
- GI50 (MALME-3M melanoma): 1460 nM
- TGI (MALME-3M melanoma): 3380 nM
- GI50 (HOP-62 NSCLC): 676 nM
- TGI (HOP-62 NSCLC): 2270 nM
- GI50 (HS 578T breast): 2490 nM
- TGI (HS 578T breast): 14200 nM
- GI50 (OVCAR-4 ovarian): 1260 nM
- TGI (OVCAR-4 ovarian): 2570 nM
- GI50 (OVCAR-3 ovarian): 389 nM
- TGI (OVCAR-3 ovarian): 1390 nM
- GI50 (HCT-116 colon): 347 nM
- TGI (HCT-116 colon): 1290 nM
- GI50 (SW-620 colon): 445 nM
- TGI (SW-620 colon): 2440 nM
- GI50 (UACC-257 melanoma): 1430 nM
- TGI (UACC-257 melanoma): 3060 nM
- GI50 (BT-549 breast): 1230 nM
- TGI (BT-549 breast): 2840 nM
- GI50 (OVCAR-8 ovarian): 524 nM
- TGI (OVCAR-8 ovarian): 2120 nM
- GI50 (LOX IMVI melanoma): 373 nM
- TGI (LOX IMVI melanoma): 1460 nM
- GI50 (MCF7 breast): 609 nM
- TGI (MCF7 breast): 2060 nM
- GI50 (U251 CNS): 911 nM
- TGI (U251 CNS): 2240 nM
- GI50 (IGROV1 ovarian): 1320 nM
- TGI (IGROV1 ovarian): 3800 nM
- GI50 (HL-60(TB) leukemia): 1820 nM
- TGI (HL-60(TB) leukemia): 4520 nM
- GI50 (ACHN renal): 1240 nM
- TGI (ACHN renal): 2490 nM
- GI50 (SK-MEL-5 melanoma): 1380 nM
- TGI (SK-MEL-5 melanoma): 2670 nM
- GI50 (A549 NSCLC): 1480 nM
- TGI (A549 NSCLC): 3910 nM
- GI50 (NCI-H522 lung): 594 nM
- TGI (NCI-H522 lung): 2250 nM
- GI50 (UACC-62 melanoma): 1030 nM
- TGI (UACC-62 melanoma): 2360 nM
- GI50 (NCI/ADR-RES ovarian): 409 nM
- TGI (NCI/ADR-RES ovarian): 2940 nM
- GI50 (RPMI-8226 leukemia): 312 nM
- TGI (RPMI-8226 leukemia): 1420 nM
- GI50 (A498 renal): 1540 nM
- TGI (A498 renal): 4210 nM
- GI50 (COLO 205 colon): 1340 nM
- TGI (COLO 205 colon): 3690 nM
- GI50 (NCI-H226 lung): 1270 nM
- TGI (NCI-H226 lung): 2950 nM
- GI50 (786-0 renal): 564 nM
- TGI (786-0 renal): 1950 nM
- GI50 (OVCAR-5 ovarian): 1700 nM
- TGI (OVCAR-5 ovarian): 3290 nM
- GI50 (NCI-H460 lung): 1910 nM
- TGI (NCI-H460 lung): 4490 nM
- GI50 (K-562 leukemia): 403 nM
- TGI (K-562 leukemia): 3230 nM
- GI50 (TK-10 renal): 1450 nM
- TGI (TK-10 renal): 2970 nM
- GI50 (T-47D breast): 1220 nM
- TGI (T-47D breast): 3170 nM

SMILES: COc1cc2nc(Cl)nc(NS(=O)(=O)c3cc4ccccc4s3)c2cc1OC
- TGI (DU-145 prostate): 60100 nM
- TGI (SNB-19 CNS): 48600 nM
- TGI (SF-295 CNS): > 100000 nM
- TGI (RXF 393 renal): 37900 nM
- TGI (HOP-92 NSCLC): 46800 nM
- TGI (NCI-H23 lung): 62500 nM
- TGI (SR leukemia): 60600 nM
- TGI (SN12C renal): 90600 nM
- TGI (CCRF-CEM leukemia): 33000 nM
- TGI (HCC-2998 colon): 39300 nM
- TGI (SNB-75 CNS): 60000 nM
- TGI (SF-539 CNS): > 100000 nM
- TGI (HT29 colon): 88900 nM
- TGI (SK-MEL-28 melanoma): 110 nM
- TGI (UO-31 renal): 33300 nM
- TGI (SK-OV-3 ovarian): 98500 nM
- TGI (MALME-3M melanoma): > 100000 nM
- TGI (HOP-62 NSCLC): > 100000 nM
- TGI (HS 578T breast): > 100000 nM
- TGI (PC-3 prostate): 75600 nM
- TGI (OVCAR-4 ovarian): 88100 nM
- TGI (OVCAR-3 ovarian): 44700 nM
- TGI (HCT-116 colon): > 100000 nM
- TGI (SW-620 colon): 43500 nM
- TGI (UACC-257 melanoma): > 100000 nM
- TGI (BT-549 breast): 57900 nM
- TGI (OVCAR-8 ovarian): > 100000 nM
- TGI (HCT-15 colon): > 100000 nM
- TGI (EKVX NSCLC): 66500 nM
- TGI (LOX IMVI melanoma): 59500 nM
- TGI (SK-MEL-2 melanoma): 61100 nM
- TGI (MCF7 breast): > 100000 nM
- TGI (U251 CNS): 68500 nM
- TGI (IGROV1 ovarian): 71800 nM
- TGI (ACHN renal): 99600 nM
- TGI (SK-MEL-5 melanoma): 37900 nM
- TGI (A549 NSCLC): > 100000 nM
- TGI (SF-268 CNS): > 100000 nM
- TGI (NCI-H522 lung): 74600 nM
- TGI (UACC-62 melanoma): 39300 nM
- TGI (NCI/ADR-RES ovarian): > 100000 nM
- TGI (MDA-MB-435): 54500 nM
- TGI (M14 melanoma): 85000 nM
- TGI (RPMI-8226 leukemia): 44900 nM
- TGI (A498 renal): 35300 nM
- TGI (CAKI-1 renal): > 100000 nM
- TGI (KM12 colon): 51200 nM
- TGI (COLO 205 colon): > 100000 nM
- TGI (NCI-H226 lung): > 100000 nM
- TGI (786-0 renal): > 100000 nM
- TGI (OVCAR-5 ovarian): 50000 nM
- TGI (NCI-H460 lung): > 100000 nM
- TGI (K-562 leukemia): 52600 nM
- TGI (MDA-MB-231 breast): 71700 nM
- TGI (TK-10 renal): > 100000 nM
- TGI (T-47D breast): 56700 nM

Reference: PubChem BioAssay (NCI)
